Measurements: US20210363254A1, “PHARMACEUTICAL COMBINATIONS” (Novartis AG, priority 2018, published 2021)
Where two headings read alike, the source gives them in different places.

[1] = RDE (Regimen 1B 120 mg) (n = 9)

SMILES: COc1ncc(-c2nc3c(n2C(C)C)[C@H](c2ccc(Cl)cc2)N(c2cc(Cl)cn(C)c2=O)C3=O)c(OC)n1 [HDM201, (S)-5-(5-Chloro-1-methyl-2-oxo-1,2-dihydro-pyridin-3-yl)-6-(4-chloro-phenyl)-2-(2,4-dimethoxy-pyrimidin-5-yl)-1-isopropyl-5,6-dihydro-1H-pyrrolo[3,4-d]imidazol-4-one]
- Nausea, Grade 3/4 (1B all subjects, N=20): 1 n (%)
- Neuralgia, All Grades (1B all subjects, N=20): 1 n (%)
- Neuralgia, Grade 3/4 (1B all subjects, N=20): 0 n (%)
- Neutropenia, All Grades (1B all subjects, N=20): 6 n (%)
- Neutropenia, Grade 3/4 (1B all subjects, N=20): 5 n (%)
- Neutrophil Count Decreased, All Grades (1B all subjects, N=20): 3 n (%)
- Neutrophil Count Decreased, Grade 3/4 (1B all subjects, N=20): 2 n (%)
- Oedema, All Grades (1B all subjects, N=20): 1 n (%)
- Oedema, Grade 3/4 (1B all subjects, N=20): 0 n (%)
- Oral Candidiasis, All Grades (1B all subjects, N=20): 1 n (%)
- Oral Candidiasis, Grade 3/4 (1B all subjects, N=20): 0 n (%)
- Platelet Count Decreased, All Grades (1B all subjects, N=20): 4 n (%)
- Platelet Count Decreased, Grade 3/4 (1B all subjects, N=20): 0 n (%)
- Pruritus, All Grades (1B all subjects, N=20): 1 n (%)
- Pruritus, Grade 3/4 (1B all subjects, N=20): 0 n (%)
- Thrombocytopenia, All Grades (1B all subjects, N=20): 5 n (%)
- Thrombocytopenia, Grade 3/4 (1B all subjects, N=20): 2 n (%)
- Total, All Grades (1B all subjects, N=20): 19 n (%)
- Total, Grade 3/4 (1B all subjects, N=20): 9 n (%)
- Vomiting, All Grades (1B all subjects, N=20): 5 n (%)
- Vomiting, Grade 3/4 (1B all subjects, N=20): 0 n (%)
- Weight Decreased, All Grades (1B all subjects, N=20): 1 n (%)
- Weight Decreased, Grade 3/4 (1B all subjects, N=20): 0 n (%)
- White Blood Cell Count Decreased, All Grades (1B all subjects, N=20): 3 n (%)
- White Blood Cell Count Decreased, Grade 3/4 (1B all subjects, N=20): 0 n (%)
- Anemia, All Grades (All Regimens (N = 85)): 25 (29) n (%)
- Anemia, Grade 3/4 (All Regimens (N = 85)): 10 n (%)
- Decreased Appetite, All Grades (All Regimens (N = 85)): 19 (22) n (%)
- Decreased Appetite, Grade 3/4 (All Regimens (N = 85)): 2 n (%)
- Diarrhea, All Grades (All Regimens (N = 85)): 13 (15) n (%)
- Diarrhea, Grade 3/4 (All Regimens (N = 85)): 0 n (%)
- Fatigue, All Grades (All Regimens (N = 85)): 19 (22) n (%)
- Fatigue, Grade 3/4 (All Regimens (N = 85)): 2 n (%)
- Leukopenia, All Grades (All Regimens (N = 85)): 12 (14) n (%)
- Leukopenia, Grade 3/4 (All Regimens (N = 85)): 8 n (%)
- Nausea, All Grades (All Regimens (N = 85)): 44 (52) n (%)
- Nausea, Grade 3/4 (All Regimens (N = 85)): 1 n (%)
- Neutropenia, All Grades (All Regimens (N = 85)): 18 (21) n (%)
- Neutropenia, Grade 3/4 (All Regimens (N = 85)): 15 n (%)
- Platelet Count Decreased, All Grades (All Regimens (N = 85)): 15 (18) n (%)
- Platelet Count Decreased, Grade 3/4 (All Regimens (N = 85)): 7 n (%)
- Thrombocytopenia, All Grades (All Regimens (N = 85)): 27 (32) n (%)
- Thrombocytopenia, Grade 3/4 (All Regimens (N = 85)): 14 n (%)
- Vomiting, All Grades (All Regimens (N = 85)): 19 (22) n (%)
- Vomiting, Grade 3/4 (All Regimens (N = 85)): 0 n (%)
- White blood cell count decrease, All Grades (All Regimens (N = 85)): 11 (13) n (%)
- White blood cell count decrease, Grade 3/4 (All Regimens (N = 85)): 3 n (%)
- Anemia, All Grades [1]: 2 (22.2) n(%)
- Anemia, G3/4 [1]: 0 n(%)
- Leukopenia/white blood cell count decreased, All Grades [1]: 3 (33.3) n(%)
- Leukopenia/white blood cell count decreased, G3/4 [1]: 0 n(%)
- Neutropenia/neutrophil count decreased, All Grades [1]: 2 (22.2) n(%)
- Neutropenia/neutrophil count decreased, G3/4 [1]: 2 (22.2) n(%)
- Thrombocytopenia/platelet count decreased, All Grades [1]: 4 (44.4) n(%)
- Thrombocytopenia/platelet count decreased, G3/4 [1]: 0 n(%)
- Anemia, All Grades (Regimen 1A (n = 26)): 10 (38.5) n(%)
- Anemia, G3/4 (Regimen 1A (n = 26)): 3 (11.5) n(%)
- Leukopenia/white blood cell count decreased, All Grades (Regimen 1A (n = 26)): 9 (34.6) n(%)
- Leukopenia/white blood cell count decreased, G3/4 (Regimen 1A (n = 26)): 5 (19.2) n(%)
- Neutropenia/neutrophil count decreased, All Grades (Regimen 1A (n = 26)): 9 (34.6) n(%)
- Neutropenia/neutrophil count decreased, G3/4 (Regimen 1A (n = 26)): 8 (30.7) n(%)
- Thrombocytopenia/platelet count decreased, All Grades (Regimen 1A (n = 26)): 12 (46.2) n(%)
- Thrombocytopenia/platelet count decreased, G3/4 (Regimen 1A (n = 26)): 8 (30.8) n(%)
- Anemia, All Grades (Regimen 1B (n = 20)): 5 (25.0) n(%)
- Anemia, G3/4 (Regimen 1B (n = 20)): 0 n(%)
- Leukopenia/white blood cell count decreased, All Grades (Regimen 1B (n = 20)): 5 (25.0) n(%)
- Leukopenia/white blood cell count decreased, G3/4 (Regimen 1B (n = 20)): 1 (5.0) n(%)
- Neutropenia/neutrophil count decreased, All Grades (Regimen 1B (n = 20)): 8 (40.0) n(%)
- Neutropenia/neutrophil count decreased, G3/4 (Regimen 1B (n = 20)): 6 (30.0) n(%)
- Thrombocytopenia/platelet count decreased, All Grades (Regimen 1B (n = 20)): 9 (45.0) n(%)
- Thrombocytopenia/platelet count decreased, G3/4 (Regimen 1B (n = 20)): 2 (10.0) n(%)
- Anemia, All Grades (Regimen 2A (n = 20)): 6 (30.0) n(%)
- Anemia, G3/4 (Regimen 2A (n = 20)): 4 (20.0) n(%)
- Leukopenia/white blood cell count decreased, All Grades (Regimen 2A (n = 20)): 4 (20.0) n(%)
- Leukopenia/white blood cell count decreased, G3/4 (Regimen 2A (n = 20)): 3 (15.0) n(%)
- Neutropenia/neutrophil count decreased, All Grades (Regimen 2A (n = 20)): 5 (25.0) n(%)
- Neutropenia/neutrophil count decreased, G3/4 (Regimen 2A (n = 20)): 4 (20.0) n(%)
- Thrombocytopenia/platelet count decreased, All Grades (Regimen 2A (n = 20)): 10 (50.0) n(%)
- Thrombocytopenia/platelet count decreased, G3/4 (Regimen 2A (n = 20)): 7 (35.0) n(%)
- Anemia, All Grades (Regimen 2C (n = 19)): 4 (21.1) n(%)
- Anemia, G3/4 (Regimen 2C (n = 19)): 3 (15.8) n(%)
- Leukopenia/white blood cell count decreased, All Grades (Regimen 2C (n = 19)): 2 (10.5) n(%)
- Leukopenia/white blood cell count decreased, G3/4 (Regimen 2C (n = 19)): 1 (5.3) n(%)
- Neutropenia/neutrophil count decreased, All Grades (Regimen 2C (n = 19)): 3 (15.8) n(%)
- Neutropenia/neutrophil count decreased, G3/4 (Regimen 2C (n = 19)): 2 (10.5) n(%)
- Thrombocytopenia/platelet count decreased, All Grades (Regimen 2C (n = 19)): 8 (42.1) n(%)
- Thrombocytopenia/platelet count decreased, G3/4 (Regimen 2C (n = 19)): 3 (15.8) n(%)
- nausea, all grade, patients (all 4 regimens, 44/85): 52%
- Grade 3/4 hematological toxicities suspected to be study-drug related, patients (all treatment regimens): ≤ 35%
- overall incidence of grade 3/4 thrombocytopenia compared across the 4 regimens (regimen 1B): lowest
- dose interruptions or discontinuations due to thrombocytopenia (regimen 1B 120 mg): no dose interruptions or discontinuations
- grade 3/4 neutropenia (regimen 1B 120 mg): 2 out of 9
- non-hematologic dose limiting toxicities or grade 3/4 AEs (regimen 1B 120 mg): no non-hematologic dose limiting toxicities or grade 3/4 AEs
- platelet transfusions required (regimen 1B 120 mg): no patients required platelet transfusions
- time to first occurrence of G4 thrombocytopenia (regimen 1B 150 mg): > 100 days
- therapeutic index among the 4 dosing regimens (regimen 1B (d1 and d8 of 4 w cycle)): most favorable therapeutic index
- lipase increase, CTCAE grade 3/4, patients (regimen 1B, 20 patients): 15%
- nausea, all grades, patients (regimen 1B, 20 patients): 60.0%
- neutropenia/neutrophil count decreased, CTCAE grade 3/4, patients (regimen 1B, 20 patients): 30.0%
- neutropenia/neutrophil count decreased, all grades, patients (regimen 1B, 20 patients): 40.0%
- patients with at least one CTCAE grade 3/4 AE suspected to be treatment-related (regimen 1B, 20 patients): 45.0%
- thrombocytopenia/platelet count decrease, CTCAE grade 3/4, patients (regimen 1B, 20 patients): 10.0%
- thrombocytopenia/platelet count decreased, all grades, patients (regimen 1B, 20 patients): 45.0%
- vomiting, all grades, patients (regimen 1B, 20 patients): 25.0%
